Data reported in ChEMBL document CHEMBL5370580, “Discovery of three-dimensional bicyclo[3.3.1]nonanols as novel heat shock protein 90 inhibitors” (Bioorg Med Chem, 2023).
pIC50: −log10 of the molar value. The source made the active and inactive calls. The calls are words filed in the database; no cut-off is given here.

Assays:
HeLa [1] = experiment: Anticancer activity against human HeLa cells assessed as cell growth inhibition measured after 72 hrs by MTT assay; format: functional, cell-based
[2] = Inhibition of HIF-1 mediated gene transcription activity in human HeLa cells co-expressing HRE dependent firefly luciferase reporter gene pre-incubated for 1 hrs followed by incubation at hypoxic condition for 12 hrs by luciferase reporter gene assay; format: cell-based
[3] = target: T1, Heat shock factor protein 1 (Homo sapiens) (UniProt Q00613); experiment: Activation of HSF1 in human HeLa cells assessed as increase in HSP47 mRNA expression at 100 uM measured after 12 hrs by Real-time PCR assay; format: cell-based
T1 sequence (whole entry): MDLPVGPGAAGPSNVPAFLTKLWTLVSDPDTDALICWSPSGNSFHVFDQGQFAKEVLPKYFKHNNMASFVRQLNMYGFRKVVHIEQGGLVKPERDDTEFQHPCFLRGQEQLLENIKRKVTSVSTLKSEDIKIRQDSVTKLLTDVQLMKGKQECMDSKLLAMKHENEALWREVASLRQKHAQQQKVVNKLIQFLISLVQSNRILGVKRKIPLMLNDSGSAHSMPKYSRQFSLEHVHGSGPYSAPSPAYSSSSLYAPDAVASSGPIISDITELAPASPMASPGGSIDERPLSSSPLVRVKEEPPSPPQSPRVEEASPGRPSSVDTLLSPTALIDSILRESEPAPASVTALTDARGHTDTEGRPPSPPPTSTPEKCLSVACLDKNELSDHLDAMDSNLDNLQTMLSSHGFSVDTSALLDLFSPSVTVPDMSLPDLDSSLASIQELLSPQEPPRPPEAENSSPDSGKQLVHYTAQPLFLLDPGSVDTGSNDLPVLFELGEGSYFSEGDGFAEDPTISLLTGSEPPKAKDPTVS

[4] = target: Hypoxia-inducible factor 1-alpha (Homo sapiens) (UniProt Q16665); experiment: Induction of HIF-1alpha degradation in human HeLa cells assessed as reduction in CA9 protein expression upto 100 uM incubated for 12 hrs under hypoxia condition by Western blot analysis; format: cell-based
[5] = target: T1, Heat shock factor protein 1 (Homo sapiens); experiment: Activation of HSF1 in human HeLa cells assessed as increase in HSP27 mRNA expression at 100 uM measured after 12 hrs by Real-time PCR assay; format: cell-based
Heat shock protein HSP90 [6] = target: T2, Heat shock protein HSP90 (Homo sapiens, UniProt P07900+P08238); experiment: Inhibition of HSP90 in human HeLa cells assessed as reduction in CDK4 protein expression at 30 to 100 uM measured after 24 hrs by Western blot analysis; format: cell-based; settings: dose 30-100 µM
HeLa [7] = experiment: Effect on CA9 mRNA expression in human HeLa cells at 1 to 100 uM pre-incubated for 1 hr followed by incubation at hypoxic condition for 12 hrs by semi-quantitative RT-PCR assay; format: functional, cell-based; settings: dose 1-100 µM, time 13.0 hrs
Heat shock protein HSP90 [8] = target: T2, Heat shock protein HSP90; experiment: Inhibition of recombinant human HSP90 ATPase activity expressed in Escherichia coli BL21 incubated for 3 hrs in presence of ATP by malachite green dye based microplate reader analysis
Heat shock protein HSP90 [9] = target: T2, Heat shock protein HSP90; experiment: Inhibition of recombinant human HSP90 expressed in Escherichia coli BL21 assessed as increase in DTT induced insulin aggregation by measuring increase in absorbance at 100 uM pre-incubated for 1 hrs followed by DTT addition by microplate reader analysis
HeLa [10] = experiment: Effect on HSP90 protein expression in human HeLa cells at 30 to 100 uM measured after 24 hrs by Western blot analysis; format: functional, cell-based; settings: dose 30-100 µM
[11] = Effect on CDK4 protein expression in human HeLa cells assessed as fold change at 100 uM measured after 24 hrs by immunoblotting analysis (reference value: 1); format: functional
[12] = target: T1, Heat shock factor protein 1 (Homo sapiens); experiment: Activation of HSF1 in human HeLa cells assessed as increase in HSP70 mRNA expression at 100 uM measured after 12 hrs by Real-time PCR assay; format: cell-based
HeLa [13] = experiment: Effect on HSP70 protein expression in human HeLa cells at 30 to 100 uM measured after 24 hrs by Western blot analysis; format: functional, cell-based; settings: dose 30-100 µM
[14] = target: Hypoxia-inducible factor 1-alpha (Homo sapiens) (UniProt Q16665); experiment: Induction of HIF-1alpha degradation in human HeLa cells assessed as reduction in HIF-1alpha accumulation upto 100 uM incubated for 12 hrs under hypoxia condition by Western blot analysis; format: cell-based
[15] = Effect on HSF1 protein expression in human HeLa cells assessed as fold change at 100 uM measured after 24 hrs by immunoblotting analysis (reference value: 1); format: functional
[16] = Effect on HSP70 protein expression in human HeLa cells assessed as fold change at 100 uM measured after 24 hrs by immunoblotting analysis (reference value: 1); format: functional
HeLa [17] = experiment: Effect on HIF-1alpha mRNA expression in human HeLa cells at 1 to 100 uM pre-incubated for 1 hr followed by incubation at hypoxic condition for 12 hrs by semi-quantitative RT-PCR assay; format: functional, cell-based; settings: dose 1-100 µM, time 13.0 hrs
HeLa [18] = experiment: Effect on CA9 mRNA expression in human HeLa cells at 100 uM pre-incubated for 1 hr followed by incubation at hypoxic condition for 12 hrs by RT-PCR assay; format: functional, cell-based; settings: time 13.0 hrs
Heat shock protein HSP90 [19] = target: T2, Heat shock protein HSP90; experiment: Inhibition of HSP90 in human HeLa cells assessed as reduction in AKT phosphorylation at 30 to 100 uM measured after 12 hrs by Western blot analysis; format: cell-based; settings: dose 30-100 µM
HeLa [20] = experiment: Effect on HIF-1alpha mRNA expression in human HeLa cells at 100 uM pre-incubated for 1 hr followed by incubation at hypoxic condition for 12 hrs by RT-PCR assay; format: functional, cell-based; settings: time 13.0 hrs
[21] = Effect on HSP90 protein expression in human HeLa cells assessed as fold change at 100 uM measured after 24 hrs by immunoblotting analysis (reference value: 1); format: functional
Heat shock protein HSP90 [22] = target: T2, Heat shock protein HSP90; experiment: Inhibition of HSP90 in human HeLa cells assessed as reduction in ERK phosphorylation at 30 to 100 uM measured after 12 hrs by Western blot analysis; format: cell-based; settings: dose 30-100 µM
Heat shock protein HSP90 [23] = target: T2, Heat shock protein HSP90; experiment: Inhibition of HSP90 in human HeLa cells assessed as reduction in p70s6k phosphorylation at 30 to 100 uM measured after 12 hrs by Western blot analysis; format: cell-based; settings: dose 30-100 µM
[24] = Inhibition of recombinant luciferase (unknown origin) incubated for 10 mins by luminescence based microplate reader analysis
[25] = Effect on HSP90 protein expression in human HeLa cells assessed as fold change at 10 uM measured after 24 hrs by immunoblotting analysis (reference value: 1); format: functional
[26] = Effect on HSF1 protein expression in human HeLa cells assessed as fold change at 10 uM measured after 24 hrs by immunoblotting analysis (reference value: 1); format: functional
[27] = target: T1, Heat shock factor protein 1 (Homo sapiens); experiment: Activation of HSF1 in human HeLa cells assessed as increase in HSP27 mRNA expression at 10 uM measured after 12 hrs by Real-time PCR assay; format: cell-based; settings: filed as activator
[28] = Downregulation of CDK4 protein expression in human Hela cells assessed as fold change at 10 uM measured after 24 hrs by immunoblotting analysis (reference value: 1); format: functional
[29] = target: T1, Heat shock factor protein 1 (Homo sapiens); experiment: Activation of HSF1 in human HeLa cells assessed as increase in HSP70 mRNA expression at 10 uM measured after 12 hrs by Real-time PCR assay; format: cell-based; settings: filed as activator
[30] = Downregulation of p-AKT protein expression in human Hela cells assessed as fold change at 10 uM measured after 24 hrs by immunoblotting analysis (reference value: 1); format: functional
[31] = target: T1, Heat shock factor protein 1 (Homo sapiens); experiment: Activation of HSF1 in human HeLa cells assessed as increase in HSP47 mRNA expression at 10 uM measured after 12 hrs by Real-time PCR assay; format: cell-based; settings: filed as activator
[32] = Effect on HSP70 protein expression in human HeLa cells assessed as fold change at 10 uM measured after 24 hrs by immunoblotting analysis (reference value: 1); format: functional
[33] = Downregulation of p-AKT protein expression in human Hela cells assessed as fold change at 100 uM measured after 24 hrs by immunoblotting analysis (reference value: 1); format: functional

Chain of Hypoxia-inducible factor 1-alpha (Homo sapiens) (Q16665 whole entry, looked up): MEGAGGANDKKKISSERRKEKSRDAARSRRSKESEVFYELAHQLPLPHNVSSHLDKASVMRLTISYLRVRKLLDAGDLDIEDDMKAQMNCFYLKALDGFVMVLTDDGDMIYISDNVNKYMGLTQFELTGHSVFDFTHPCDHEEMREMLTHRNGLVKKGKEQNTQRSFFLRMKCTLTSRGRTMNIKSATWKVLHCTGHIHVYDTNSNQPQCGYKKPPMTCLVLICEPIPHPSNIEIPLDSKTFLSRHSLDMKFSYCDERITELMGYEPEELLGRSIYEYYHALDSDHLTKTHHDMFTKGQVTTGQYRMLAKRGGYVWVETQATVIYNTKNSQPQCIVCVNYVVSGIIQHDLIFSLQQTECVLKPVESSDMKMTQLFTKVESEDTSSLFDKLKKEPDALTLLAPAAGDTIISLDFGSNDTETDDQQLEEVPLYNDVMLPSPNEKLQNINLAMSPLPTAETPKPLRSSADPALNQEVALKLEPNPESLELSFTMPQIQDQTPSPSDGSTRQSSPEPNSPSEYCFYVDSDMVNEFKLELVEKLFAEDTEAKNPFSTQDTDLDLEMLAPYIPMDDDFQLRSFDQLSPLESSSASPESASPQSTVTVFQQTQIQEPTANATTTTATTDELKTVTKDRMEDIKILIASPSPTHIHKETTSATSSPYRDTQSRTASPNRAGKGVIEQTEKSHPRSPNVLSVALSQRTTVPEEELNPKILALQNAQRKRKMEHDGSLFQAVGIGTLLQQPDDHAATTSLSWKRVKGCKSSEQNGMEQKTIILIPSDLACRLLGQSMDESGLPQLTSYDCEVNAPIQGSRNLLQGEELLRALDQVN

SMILES | pIC50 (HeLa [1]) | pIC50 [2] | Activity [3] | Activity [4] | Activity [5] | inhibition (Heat shock protein HSP90 [6]) | inhibition (Heat shock protein HSP90 [9]) | Activity [12] | Activity [14] | inhibition (Heat shock protein HSP90 [19]) | Activity (HeLa [7]) | Activity (HeLa [10]) | fold change (FC) [11] | Activity (HeLa [13]) | fold change (FC) [15] | fold change (FC) [16] | Activity (HeLa [17]) | Activity (HeLa [18]) | Activity (HeLa [20]) | fold change (FC) [21] | further results
CCCC[C@@H]1C[C@@H]2C(C(=O)OC)=C(O)[C@H](C(=O)OC)[C@@](O)([C@@H]1C(=O)OC)[C@H]2C(=O)O | 4.35 | < 4.00 |  |  |  |  |  |  |  |  |  |  |  |  |  |  |  |  |  |  | 
CCCC[C@@H]1C[C@@H]2C(C(=O)OCC(C)C)=C(O)[C@H](C(=O)OC)[C@@](O)([C@@H]1C(=O)OCC(C)C)[C@H]2C(=O)O | 4.65 | < 4.00 |  |  |  |  |  |  |  |  |  |  |  |  |  |  |  |  |  |  | 
COC1=C2C[C@@H](C)C[C@H](OC)[C@H](O)[C@@H](C)/C=C(\C)[C@H](OC(N)=O)[C@@H](OC)/C=C\C=C(/C)C(=O)NC(=CC1=O)C2=O [GELDANAMYCIN] |  |  |  |  |  |  |  |  |  |  |  |  |  |  |  |  |  |  |  |  | fold change (FC) [25]: 0.93; fold change (FC) [26]: 1.06; Activity [27]: Active; fold change (FC) [28]: 0.71; Activity [29]: Active; fold change (FC) [30]: 0.7; Activity [31]: Active; fold change (FC) [32]: 1.96
CC(C)COC(=O)C1=C(O)[C@H](C(=O)OCC(C)C)[C@@]2(O)[C@H](C(=O)OCC(C)C)[C@H](C)C[C@H]1[C@@H]2C(=O)O | 4.73 | 4.30 | inactive | Active | inactive | Active | inactive | inactive | Active | Active | Active | inactive | 0.6 | inactive | 0.98 | 0.99 | inactive | Active | inactive | 0.96 | IC50 (Heat shock protein HSP90 [8]): 95 µM; fold change (FC) [33]: 0.51; inhibition (Heat shock protein HSP90 [22]): Active; inhibition (Heat shock protein HSP90 [23]): Active; inhibition [24]: Active

Continued, in another order:

pIC50 (HeLa [1]) | pIC50 [2] | Activity [3] | Activity [4] | Activity [5] | inhibition (Heat shock protein HSP90 [6]) | inhibition (Heat shock protein HSP90 [9]) | Activity [12] | Activity [14] | inhibition (Heat shock protein HSP90 [19]) | SMILES | Activity (HeLa [7]) | Activity (HeLa [10]) | fold change (FC) [11] | Activity (HeLa [13]) | fold change (FC) [15] | fold change (FC) [16] | Activity (HeLa [17]) | Activity (HeLa [18]) | Activity (HeLa [20]) | fold change (FC) [21] | further results
4.73 | 4.44 | inactive | Active | inactive | Active | inactive | inactive | Active | Active | CCCC[C@@H]1C[C@@H]2C(C(=O)OCC(C)C)=C(O)[C@H](C(=O)OCC(C)C)[C@@](O)([C@@H]1C(=O)OCC(C)C)[C@H]2C(=O)O | Active | inactive | 0.52 | inactive | 0.9 | 0.97 | inactive | Active | inactive | 0.95 | IC50 (Heat shock protein HSP90 [8]): 45.8 µM; inhibition (Heat shock protein HSP90 [22]): Active; inhibition (Heat shock protein HSP90 [23]): Active; inhibition [24]: Active
< 4.00 | < 4.00 |  |  |  |  |  |  |  |  | COC(=O)C1=C(O)[C@H](C(=O)OC)[C@@]2(O)[C@H](C(=O)OC)[C@H](C)C[C@H]1[C@@H]2C(=O)O |  |  |  |  |  |  |  |  |  |  | 
4.40 | 4.15 | inactive | Active | inactive | Active | inactive | inactive | Active | Active | CCCC[C@@H]1C[C@@H]2C(C(=O)OCC(C)C)=C(O)[C@H](C(=O)OC)[C@@](O)([C@@H]1C(=O)OC)[C@H]2C(=O)O | Active | inactive | 0.78 | inactive | 1.02 | 0.95 | inactive | Active | inactive | 0.97 | fold change (FC) [33]: 0.82; inhibition (Heat shock protein HSP90 [22]): Active; inhibition (Heat shock protein HSP90 [23]): Active; inhibition [24]: Active
4.14 | < 4.00 |  |  |  |  |  |  |  |  | CCCC[C@@H]1C[C@@H]2C(C(=O)OCC(C)C)=C(O)[C@H](C(=O)OCC(C)C)[C@@](O)([C@@H]1C(=O)OCC(C)C)[C@H]2C(=O)OCC(C)C |  |  |  |  |  |  |  |  |  |  | 
